Measured values as given in the NIST ThermoML archive (doi:10.1021/je800616p).
± gives the expanded uncertainty stated by the source.

Experiment: mn = molality of the nth substance listed, in mol/kg
Conditions: 101 kPa, Liquid; for viscosity: Capillary tube (Ostwald / Ubbelohde) method; for mass density: Vibrating tube method

NC(=O)c1ccccc1O [2-hydroxybenzamide] + CO
viscosity (293.15 K, m1 = 0.0095): 0.597 ± 0.0071 mPa·s | viscosity (293.15 K, m1 = 0.0126): 0.5976 ± 0.0071 mPa·s | viscosity (293.15 K, m1 = 0.0158): 0.5981 ± 0.0071 mPa·s | viscosity (293.15 K, m1 = 0.019): 0.5987 ± 0.0071 mPa·s | viscosity (293.15 K, m1 = 0.0221): 0.5993 ± 0.0071 mPa·s | viscosity (293.15 K, m1 = 0.0253): 0.5997 ± 0.0071 mPa·s | viscosity (293.15 K, m1 = 0.0317): 0.6008 ± 0.0071 mPa·s | mass density (293.15 K, m1 = 0.0095): 792.015 ± 0.14 kg/m3 | mass density (293.15 K, m1 = 0.0126): 792.215 ± 0.13 kg/m3 | mass density (293.15 K, m1 = 0.0158): 792.352 ± 0.13 kg/m3 | mass density (293.15 K, m1 = 0.019): 792.555 ± 0.13 kg/m3 | mass density (293.15 K, m1 = 0.0221): 792.688 ± 0.12 kg/m3 | mass density (293.15 K, m1 = 0.0253): 792.801 ± 0.12 kg/m3 | mass density (293.15 K, m1 = 0.0317): 792.965 ± 0.12 kg/m3 | viscosity (298.15 K, m1 = 0.0095): 0.5471 ± 0.0069 mPa·s | viscosity (298.15 K, m1 = 0.0126): 0.5475 ± 0.0069 mPa·s | viscosity (298.15 K, m1 = 0.0158): 0.548 ± 0.0069 mPa·s | viscosity (298.15 K, m1 = 0.019): 0.5485 ± 0.0069 mPa·s | viscosity (298.15 K, m1 = 0.0222): 0.549 ± 0.0069 mPa·s | viscosity (298.15 K, m1 = 0.0253): 0.5495 ± 0.0069 mPa·s | viscosity (298.15 K, m1 = 0.0317): 0.5503 ± 0.0069 mPa·s | mass density (298.15 K, m1 = 0.0095): 787.285 ± 0.14 kg/m3 | mass density (298.15 K, m1 = 0.0126): 787.479 ± 0.13 kg/m3 | mass density (298.15 K, m1 = 0.0158): 787.615 ± 0.13 kg/m3 | mass density (298.15 K, m1 = 0.019): 787.819 ± 0.13 kg/m3 | mass density (298.15 K, m1 = 0.0222): 787.921 ± 0.12 kg/m3 | mass density (298.15 K, m1 = 0.0253): 788.019 ± 0.12 kg/m3 | mass density (298.15 K, m1 = 0.0317): 788.218 ± 0.12 kg/m3 | viscosity (303.15 K, m1 = 0.0095): 0.5003 ± 0.0068 mPa·s | viscosity (303.15 K, m1 = 0.0127): 0.5005 ± 0.0068 mPa·s | viscosity (303.15 K, m1 = 0.0159): 0.5007 ± 0.0068 mPa·s | viscosity (303.15 K, m1 = 0.0191): 0.5009 ± 0.0068 mPa·s | viscosity (303.15 K, m1 = 0.0223): 0.5012 ± 0.0068 mPa·s | viscosity (303.15 K, m1 = 0.0255): 0.5015 ± 0.0068 mPa·s | viscosity (303.15 K, m1 = 0.0319): 0.5019 ± 0.0068 mPa·s | mass density (303.15 K, m1 = 0.0095): 782.541 ± 0.14 kg/m3 | mass density (303.15 K, m1 = 0.0127): 782.725 ± 0.13 kg/m3 | mass density (303.15 K, m1 = 0.0159): 782.859 ± 0.13 kg/m3 | mass density (303.15 K, m1 = 0.0191): 783.029 ± 0.13 kg/m3 | mass density (303.15 K, m1 = 0.0223): 783.149 ± 0.13 kg/m3 | mass density (303.15 K, m1 = 0.0255): 783.261 ± 0.13 kg/m3 | mass density (303.15 K, m1 = 0.0319): 783.449 ± 0.12 kg/m3 | viscosity (308.15 K, m1 = 0.0096): 0.4852 ± 0.0068 mPa·s | viscosity (308.15 K, m1 = 0.0128): 0.4853 ± 0.03 mPa·s | viscosity (308.15 K, m1 = 0.016): 0.4855 ± 0.03 mPa·s | viscosity (308.15 K, m1 = 0.0192): 0.4857 ± 0.03 mPa·s | viscosity (308.15 K, m1 = 0.0224): 0.4859 ± 0.03 mPa·s | viscosity (308.15 K, m1 = 0.0256): 0.4862 ± 0.03 mPa·s | viscosity (308.15 K, m1 = 0.0321): 0.4866 ± 0.03 mPa·s | mass density (308.15 K, m1 = 0.0096): 777.775 ± 0.14 kg/m3 | mass density (308.15 K, m1 = 0.0128): 777.951 ± 0.13 kg/m3 | mass density (308.15 K, m1 = 0.016): 778.085 ± 0.13 kg/m3 | mass density (308.15 K, m1 = 0.0192): 778.255 ± 0.13 kg/m3 | mass density (308.15 K, m1 = 0.0224): 778.368 ± 0.13 kg/m3 | mass density (308.15 K, m1 = 0.0256): 778.495 ± 0.13 kg/m3 | mass density (308.15 K, m1 = 0.0321): 778.659 ± 0.13 kg/m3 | viscosity (310.15 K, m1 = 0.0097): 0.4602 ± 0.0067 mPa·s | viscosity (310.15 K, m1 = 0.0129): 0.4603 ± 0.0067 mPa·s | viscosity (310.15 K, m1 = 0.0161): 0.4604 ± 0.0067 mPa·s | viscosity (310.15 K, m1 = 0.0193): 0.4607 ± 0.0067 mPa·s | viscosity (310.15 K, m1 = 0.0218): 0.4608 ± 0.0067 mPa·s | viscosity (310.15 K, m1 = 0.0258): 0.4609 ± 0.0067 mPa·s | viscosity (310.15 K, m1 = 0.0323): 0.4612 ± 0.0067 mPa·s | mass density (310.15 K, m1 = 0.0097): 775.881 ± 0.21 kg/m3 | mass density (310.15 K, m1 = 0.0129): 776.055 ± 0.13 kg/m3 | mass density (310.15 K, m1 = 0.0161): 776.195 ± 0.13 kg/m3 | mass density (310.15 K, m1 = 0.0193): 776.355 ± 0.14 kg/m3 | mass density (310.15 K, m1 = 0.0218): 776.449 ± 0.13 kg/m3 | mass density (310.15 K, m1 = 0.0258): 776.585 ± 0.12 kg/m3 | mass density (310.15 K, m1 = 0.0323): 776.765 ± 0.18 kg/m3 | viscosity (313.15 K, m1 = 0.0097): 0.4502 ± 0.0067 mPa·s | viscosity (313.15 K, m1 = 0.013): 0.4503 ± 0.0067 mPa·s | viscosity (313.15 K, m1 = 0.0162): 0.4504 ± 0.0067 mPa·s | viscosity (313.15 K, m1 = 0.0194): 0.4506 ± 0.0067 mPa·s | viscosity (313.15 K, m1 = 0.0227): 0.4508 ± 0.0067 mPa·s | viscosity (313.15 K, m1 = 0.0259): 0.4509 ± 0.0067 mPa·s | viscosity (313.15 K, m1 = 0.0325): 0.4511 ± 0.0067 mPa·s | mass density (313.15 K, m1 = 0.0097): 775.744 ± 5 kg/m3 | mass density (313.15 K, m1 = 0.013): 775.898 ± 5 kg/m3 | mass density (313.15 K, m1 = 0.0162): 776.045 ± 5 kg/m3 | mass density (313.15 K, m1 = 0.0194): 776.165 ± 5 kg/m3 | mass density (313.15 K, m1 = 0.0227): 776.285 ± 5 kg/m3 | mass density (313.15 K, m1 = 0.0259): 776.375 ± 5 kg/m3 | mass density (313.15 K, m1 = 0.0325): 776.558 ± 5 kg/m3
